Experimental findings from article PMC2587278 (Antioxidants & redox signaling, 2008) are described below.

Usually IC50 stands for the concentration at which inhibition is half-maximal.

The structures appear in SMILES notation.

The experiment deals with T1, zebrafish Ape1 (zApe1) (Danio rerio, UniProt A0MTA1, T58C).
T1 sequence (A0MTA1 1-310 T58C): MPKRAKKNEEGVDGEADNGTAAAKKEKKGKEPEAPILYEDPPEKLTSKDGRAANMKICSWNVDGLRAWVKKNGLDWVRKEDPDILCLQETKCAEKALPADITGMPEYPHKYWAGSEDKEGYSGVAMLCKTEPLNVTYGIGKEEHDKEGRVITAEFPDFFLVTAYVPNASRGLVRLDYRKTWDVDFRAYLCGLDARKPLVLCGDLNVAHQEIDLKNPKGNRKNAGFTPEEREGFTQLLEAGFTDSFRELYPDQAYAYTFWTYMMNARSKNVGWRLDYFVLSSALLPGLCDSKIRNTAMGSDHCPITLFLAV
The experiment can be described thus: redox EMSA: Ape1-stimulated AP-1 DNA binding, HEX-labelled oligonucleotide. It is filed as biochemical. (A gel shift assay detects complexes by their altered migration in electrophoresis.)

Consider `CCCCCCCCC/C(=C\C1=C(C)C(=O)C(OC)=C(OC)C1=O)C(=O)O` [compound 5, (E)-3-(4,5-dimethoxy-2-methyl-3,6-dioxocyclohexa-1,4-dienyl)-2-nonylpropenoic acid], for which the half-maximal inhibitory concentration (IC50) worked out at 5 µM.
